From US11903386B2, “Strigolactone analogs and their usage in plant control” (King Abdullah University of Science and Technology, priority 2016, dated 2024)
“Also recorded” adds a separate entry of the source.

Experiments:
S. hermonthica seeds = assay: Striga hermonthica seed germination bioassay; format: in vivo; details: for Relative activity in inducing S. hermonthica seed germination: comparison between compounds
Method: Parasitic weed seeds (S. hermonthica and P. ramosa) germination activity was recorded as described previously (Jamil et al., 2012). Six pre-conditioned seed discs were placed in a 90 mm petri-dish containing a filter paper ring wetted with 0.9 ml sterile MilliQ water. […] GR24 solutions with equal concentrations and sterile MilliQ water were included as a positive and negative control, respectively. After application, seeds were incubated at 30° C./25° C. in the dark for two days. Germination (seeds with radical emerging through seed coat) was scored under a binocular microscope, and germination rate (%) was calculated. Statistical analyses were carried out using statistical software package R (version 3.2.2). Dose-response curves and Half Maximum Effective Concentrations (EC50) were calculated to determine optimum amount of MPs. Synthetic strigolactone analog GR24 was used as reference to estimate efficacy of selected compounds. EC50 and estimated response were calculated using drc package (https://cran.r390 project.org/web/packages/drc/) with a Four Parameter Logistic Curve (Dose Response Curve) (Ritz and Streibig, 2005).

ShHTL7 [1] = target: T1, ShHTL7 (Striga hermonthica, UniProt A0A0M3PNA2); assay: Intrinsic tryptophan fluorescence assay; format: binding; details: ShHTL7 10 μM, mean±SE (n=3); read-out: Kd, affinity of ShHTL7
T1 sequence (A0A0M3PNA2 1-271): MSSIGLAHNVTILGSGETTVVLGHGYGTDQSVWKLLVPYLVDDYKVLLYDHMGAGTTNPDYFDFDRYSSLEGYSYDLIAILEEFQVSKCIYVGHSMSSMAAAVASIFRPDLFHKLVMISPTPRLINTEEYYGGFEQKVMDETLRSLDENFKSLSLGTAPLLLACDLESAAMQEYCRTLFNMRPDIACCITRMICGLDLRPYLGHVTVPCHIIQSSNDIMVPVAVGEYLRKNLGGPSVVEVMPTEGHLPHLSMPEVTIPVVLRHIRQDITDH
Excerpt: Striga hermonthica ShHTL7 cDNA, GenBank accession KR013127 was kindly provided by Prof. Tadao Asami (The University of Tokyo, Japan). Arabidopsis thaliana D14 (AtD14) cDNA, GenBank accession AY097402 was synthesized and cloned into pUC57 (GenScript). ShHTL7 and OsD14 cDNAs were amplified by RT-PCR using the primers shown in Table 2, digested with BamHI and XhoI, and ligated into BamHI/XhoI digested pGEX-6P-1 expression vector (GE Healthcare). Integrity of plasmids was confirmed by sequencing (KAUST Bioscience Core Lab). The plasmids were then transformed into E. coli BL21 (DE3) cells. The cells were grown in LB broth containing ampicillin ([…]), incubated at 37° C. until OD600 of 0.6 and induced with 0.1 mM isopropyl-β-D-thiogalactopyranoside (IPTG) at 16° C. for 16 h. Harvested cells were re-suspended in lysis buffer: 50 mM Tris-HCl (pH 8.0), 200 mM NaCl, 0.5% Tween-20 and 2 mM dithiothreitol (DTT). After sonication on ice for 10 mins, the lysate was centrifuged at 25,000 rpm for 30 min at 4° C. Supernatant was allowed to bind to glutathione-sepharose beads (GE Healthcare) for 2 h at 4° C., washed 3 times with buffer (50 mM Tris-HCl (pH 8.0), 200 mM NaCl, 2 mM DTT), and eluted by cleaving GST moiety with PreScission™ Protease (GE Healthcare) at 4° C. overnight. Eluted protein was further purified by gel filtration using HiLoad 16/60 Superdex200 prep grade column (GE Healthcare) on an AKTA prime system (GE Healthcare) in gel filtration buffer (10 mM HEPES pH 7.5, 50 mM KCl and 2 mM DTT). Protein eluted as a sharp single peak and purity was judged by 4-15% SDS-PAGE (Bio-Rad). Purified protein was concentrated using an Amicon 10K filter unit (Merck Millipore) and stored at −80° C. until use. Similar expression and purification protocol was followed for OsD14 protein, except that OsD14 was eluted from Glutathione resins using 0.2 mM reduced Glutathione (Sigma) without cutting GST tag.
ShHTL7 tryptophans were excited at 280 nm and […] emission intensity was measured at 333 nm. ShHTL7 (10 μM) was incubated at various dilutions (0.2, 0.4, 0.8, 1.6, 3.12, 6.25, 12.5, 25 and 50 μM) of GR24 and MPs for 30 minutes at room temperature before measurement. Each concentration point was measured in triplicates. Emitted fluorescence was monitored using spectraMaxi3 (Molecular Devices) plate reader in 96-wells black plates. Changes in tryptophan fluorescence intensity occur due to conformational changes in protein when it is bound to ligand; differences in fluorescence intensity were recorded and analyzed. Data were normalized and dissociation coefficient (Kd) values were calculated by fitting to a binding saturation single-site model with GraphPad (PRISM 6).

ShHTL7 [2] = target: T1, ShHTL7; assay: In vitro hydrolysis assay with ShHTL7 (HPLC); format: biochemical; details: 10 μM substrate, 37° C.
OsD14 = target: T2, OsD14 (Oryza sativa subsp. japonica, UniProt Q10QA5); assay: In vitro hydrolysis assay with OsD14 (HPLC); format: biochemical, rice; details: 10 μM substrate, 37° C.
T2 construct: made in house; host or cells: E. coli BL21 (DE3)
T2 sequence (Q10QA5 1-318): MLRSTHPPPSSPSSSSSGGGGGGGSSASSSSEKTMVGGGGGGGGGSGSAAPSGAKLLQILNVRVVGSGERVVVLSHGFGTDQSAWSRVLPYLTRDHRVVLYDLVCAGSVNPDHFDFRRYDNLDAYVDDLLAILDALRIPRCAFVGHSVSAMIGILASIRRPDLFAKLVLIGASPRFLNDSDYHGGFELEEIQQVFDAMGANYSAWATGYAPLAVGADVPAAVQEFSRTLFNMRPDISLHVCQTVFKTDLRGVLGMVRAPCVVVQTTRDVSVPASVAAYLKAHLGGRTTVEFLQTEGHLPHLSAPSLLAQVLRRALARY
Excerpt: Striga hermonthica ShHTL7 cDNA, GenBank accession KR013127 was kindly provided by Prof. Tadao Asami (The University of Tokyo, Japan). Arabidopsis thaliana D14 (AtD14) cDNA, GenBank accession AY097402 was synthesized and cloned into pUC57 (GenScript). ShHTL7 and OsD14 cDNAs were amplified by RT-PCR using the primers shown in Table 2, digested with BamHI and XhoI, and ligated into BamHI/XhoI digested pGEX-6P-1 expression vector (GE Healthcare). Integrity of plasmids was confirmed by sequencing (KAUST Bioscience Core Lab). The plasmids were then transformed into E. coli BL21 (DE3) cells. The cells were grown in LB broth containing ampicillin ([…]), incubated at 37° C. until OD600 of 0.6 and induced with 0.1 mM isopropyl-β-D-thiogalactopyranoside (IPTG) at 16° C. for 16 h. […]
The hydrolysis of GR24 and MPs by ShHTL7/OsD14 was performed in a total volume of 0.5 ml of PBS buffer containing 10 μM of substrate. […] Hydrolysis of substrates was monitored by HPLC analysis using an Zorbax Eclipse Plus C18 column (3.5 μm, 2.1×150 mm), eluted by a gradient from 10% to 90% acetonitrile in water within 15 min and keeping final condition for 4 min. […] Eluted compounds were detected using a Diode Array Detector. Amounts of remaining substrates were determined by calculating corresponding peaks, in comparison to that of internal standard.

COC(=O)/C(=C/OC1C=C(C)C(=O)O1)c1ccccc1 (racemic) [MP3, (E)-methyl 3-(4-methyl-5-oxo-2,5-dihydrofuran-2-yloxy)-2-phenylacrylate]
Relative activity in inducing S. hermonthica seed germination (S. hermonthica seeds): less active than MP1 | Kd (ShHTL7 [1]): 10100 ± 5100 nM | Hydrolysis rate by ShHTL7 (ShHTL7 [2]): finally MP3; also recorded: higher hydrolysis activities with MP3 and MP7 than with GR24 | Hydrolysis rate by OsD14 (OsD14): finally MP3

COC(=O)/C(=C/OC1C=C(C)C(=O)O1)c1ccc([N+](=O)[O-])cc1 (racemic) [MP1, (E)-methyl 3-(4-methyl-5-oxo-2,5-dihydrofuran-2-yloxy)-2-(4-nitrophenyl)acrylate]
Relative activity in inducing S. hermonthica seed germination (S. hermonthica seeds): the most potent compound | Striga germination activity (EC50) relative to GR24, times weaker (S. hermonthica seeds; in vivo): around 17 times | Kd (ShHTL7 [1]): 720 ± 550 nM | Hydrolysis rate by ShHTL7 (ShHTL7 [2]): highest hydrolysis rates | Hydrolysis rate by OsD14 (OsD14): highest hydrolysis rate

COC(=O)/C(=C/OC1C=C(C)C(=O)O1)c1ccc(Cl)cc1 (stereo not drawn) [MP7]
Relative activity in inducing S. hermonthica seed germination (S. hermonthica seeds): highest germination activity | Kd (ShHTL7 [1]): 1150 ± 310 nM | Hydrolysis rate by ShHTL7 (ShHTL7 [2]): higher hydrolysis activities with MP3 and MP7 than with GR24
